Source: US20100273711A1, “INDIVIDUALIZED CANCER TREATMENTS” (priority 2007, published 2010)
“Also recorded” adds a separate entry of the source.

Legend:
MALME-3M = details: pemetrexed, cell line MALME-3M; cited from earlier work
NSCLC cell line (H2030) = assay: Cell proliferation and drug sensitivity assay (MTT colorimetric assay, 96 hrs), H2030; type: cell-based
Method: Lung and ovarian cancer cell culture. The NSCLC cell lines (H23, H225, H322, H358, H441, H520, A549, H647, H838, H1650, H1651, H1666, H1734, H1793, H1838, H2030 and H2 126) were grown as recommended by the supplier (ATCC, Rockville, Mo.). The ovarian cancer cell lines (OCV AR-3, OVCAR-5, TOV-21G and TOV-1120) were grown as recommended by the supplier (ATCC, Rockville, Mo.). FUOV-1, a human ovarian carcinoma, was grown according to the supplier (DSMZ, Braunschweig, Germany). Ten additional cell lines (C13, OV2008, A2780-CP, A2780S, IGROV-1, T8, IMCC3, 1MCC5, SKOV3 and A200S) were provided by Dr. Patricia Kruk (University of South Florida, Fla.). These ten cell lines were grown in RPMI 1640, supplemented with 10% Fetal Bovine Serum, 1% Sodium pyruvate, and 1% non essential amino acids. Tissue culture media and Thiazolyl Blue Tetrazolium Bromide were purchased from Sigma Aldrich (St. Louis, Mo.). […]
Cell proliferation and Drug sensitivity assays. Optimal cell number and linear range of drug concentration were determined for each cell line and drug as described previously (Bild A, Yao G, Chang S T, et al: Oncogenic pathways signatures in human cancers as guide to targeted therapies. Nature 439(7074):353-357, 2006, Potti A, Dressman H K, Bild A, et al: Genomic signatures to guide the use of chemotherapeutics. Nature Medicine 12(11): 1294-1300, 2006). […]

NCI-H226 = details: pemetrexed, cell line NCI-H226; cited from earlier work
OAW42 = details: pemetrexed, cell line OAW42; cited from earlier work
SW13 = details: pemetrexed, cell line Sw13; cited from earlier work
MDA-MB-435 = details: pemetrexed, cell line MDA-MB-435; cited from earlier work
SKMel19 = details: pemetrexed, cell line SKMel19; cited from earlier work
OVKAR = details: pemetrexed, cell line OVKAR; cited from earlier work
ME43 = details: pemetrexed, cell line me43; cited from earlier work
DV90 = details: pemetrexed, cell line DV90; cited from earlier work
FUOV1 = details: pemetrexed, cell line FUOV1; cited from earlier work
K-562 = details: pemetrexed, cell line K-562; cited from earlier work
HS578T = details: pemetrexed, cell line HS578T; cited from earlier work
SNB-19 = details: pemetrexed, cell line SNB-19; cited from earlier work
BT20 = details: pemetrexed, cell line BT20; cited from earlier work
ES2 = details: pemetrexed, cell line ES2; cited from earlier work
SK-MEL-2 = details: pemetrexed, cell line SK-MEL-2; cited from earlier work

Nc1nc2[nH]cc(CCc3ccc(C(=O)N[C@@H](CCC(=O)O)C(=O)O)cc3)c2c(=O)[nH]1 [Pemetrexed, pemetrexed]
Resistant (Res) or Sensitive (Sen) (MALME-3M): Sen | sensitivity to subsequent pemetrexed exposure (NSCLC cell line (H2030); H2030 first treated for four days with a taxane (docetaxel or paclitaxel)): resistance to subsequent pemetrexed exposure was induced; also recorded: develops resistance | sensitivity to pemetrexed (NSCLC cell line (H2030); H2030 first treated with pemetrexed): sensitive | Resistant (Res) or Sensitive (Sen) (NCI-H226): Sen | Resistant (Res) or Sensitive (Sen) (OAW42): Sen | Resistant (Res) or Sensitive (Sen) (SW13): Res | Resistant (Res) or Sensitive (Sen) (MDA-MB-435): Sen | Resistant (Res) or Sensitive (Sen) (SKMel19): Res | Resistant (Res) or Sensitive (Sen) (OVKAR): Sen | Resistant (Res) or Sensitive (Sen) (ME43): Res | Resistant (Res) or Sensitive (Sen) (DV90): Sen | Resistant (Res) or Sensitive (Sen) (FUOV1): Sen | Resistant (Res) or Sensitive (Sen) (K-562): Res | Resistant (Res) or Sensitive (Sen) (HS578T): Sen | Resistant (Res) or Sensitive (Sen) (SNB-19): Sen | Resistant (Res) or Sensitive (Sen) (BT20): Sen | Resistant (Res) or Sensitive (Sen) (ES2): Res | Resistant (Res) or Sensitive (Sen) (SK-MEL-2): Sen
